Reference: patent EP0392423A2, “Substituted 1,4-7-10-tetraazacyclotridecanes, method for their preparation and use of the same for labelling substances with radionuclides” (priority 1989, dated 1990)
Where two headings read alike, the source gives them in different places.

Test system: Transferrin
Conditions: human, serum
Method: Bei diesen Vergleichsversuchen wurde ¹¹¹In sowohl mit den bekannten 12- und 14-Ring-Cyclamen als auch mit dem erfindungsgemäßen Cyclam aus Beispiel 1 komplexiert und anschließend jeweils der ¹¹¹In-Austausch gegen Transferrin - ein bekanntermaßen gutes Komplexierungsmittel - in humanem Serum bei 37°C untersucht.

Substance | ¹¹¹In-Austausch gegen Transferrin (12 h) | ¹¹¹In-Austausch gegen Transferrin (120 h)
12-(p-Nitrobenzyl)-1,4,7,10-tetraacetat-1,4,7,10-tetraazacyclotridecan [Beispiel 1] | < 0,1% | ca. 1%
Dodecatetraacetate [DOTA] | ca. 0,3% | ca. 4%
